# Assay results: ChEMBL document CHEMBL1143799, “Synthesis and primary cytotoxicity evaluation of new imidazo[2,1-b]thiazole derivatives” (2007)
# Key:
# Format in all cases: functional
# [1] = system: HCT-15; test: Growth inhibition of human HCT15 cells after 48 hrs by SRB protein assay; conditions: HCT-15, 48 h; for TGI: read-out: Log TGI (converted)
# [2] = system: HCT-116; test: Growth inhibition of human HCT116 cells after 48 hrs by SRB protein assay; conditions: HCT-116, 48 h; for TGI: read-out: Log TGI (converted)
# [3] = system: HOP-62; test: Growth inhibition of human HOP62 cells after 48 hrs by SRB protein assay; conditions: HOP-62, 48 h; for TGI: read-out: Log TGI (converted)
# [4] = system: SN12C; test: Growth inhibition of human SN12C cells after 48 hrs by SRB protein assay; conditions: for TGI: read-out: Log TGI (converted)
# [5] = system: HCC 2998; test: Growth inhibition of human HCC2998 cells after 48 hrs by SRB protein assay; conditions: HCC 2998, 48 h; for TGI: read-out: Log TGI (converted)
# [6] = system: MDA-MB-435; test: Growth inhibition of human MDA-MB-435 cells after 48 hrs by SRB protein assay; conditions: MDA-MB-435, 48 h; for TGI: read-out: Log TGI (converted)
# [7] = system: RXF 393; test: Growth inhibition of human RXF393 cells after 48 hrs by SRB protein assay; conditions: RXF 393, 48 h; for TGI: read-out: Log TGI (converted)
# [8] = system: SNB-75; test: Growth inhibition of human SNB75 cells after 48 hrs by SRB protein assay; conditions: SNB-75, 48 h; for TGI: read-out: Log TGI (converted)
# [9] = system: SK-MEL-5; test: Growth inhibition of human SK-MEL-5 cells after 48 hrs by SRB protein assay; conditions: SK-MEL-5, 48 h; for TGI: read-out: Log TGI (converted)
# [10] = system: UACC-257; test: Growth inhibition of human UACC257 cells after 48 hrs by SRB protein assay; conditions: UACC-257, 48 h; for TGI: read-out: Log TGI (converted)
# [11] = system: PC-3; test: Growth inhibition of human PC3 cells after 48 hrs by SRB protein assay; conditions: PC-3, 48 h; for TGI: read-out: Log TGI (converted)
# [12] = Growth inhibition of human 786O cells after 48 hrs by SRB protein assay; conditions: 786-0, 48 h; for TGI: read-out: Log TGI (converted)
# [13] = system: SW-620; test: Growth inhibition of human SW620 cells after 48 hrs by SRB protein assay; conditions: SW-620, 48 h; for TGI: read-out: Log TGI (converted)
# [14] = system: UO-31; test: Growth inhibition of human UO31 cells after 48 hrs by SRB protein assay; conditions: UO-31, 48 h; for TGI: read-out: Log TGI (converted)
# [15] = system: CCRF-CEM; test: Growth inhibition of human CCRF-CEM cells after 48 hrs by SRB protein assay; conditions: for TGI: read-out: Log TGI (converted)
# [16] = system: SK-OV-3; test: Growth inhibition of human SK-OV-3 cells after 48 hrs by SRB protein assay; conditions: SK-OV-3, 48 h; for TGI: read-out: Log TGI (converted)
# [17] = system: MCF7; test: Growth inhibition of human MCF7 cells after 48 hrs by SRB protein assay; conditions: MCF7, 48 h; for TGI: read-out: Log TGI (converted)
# [18] = system: NCI-H522; test: Growth inhibition of human NCI-H522 cells after 48 hrs by SRB protein assay; conditions: NCI-H522, 48 h; for TGI: read-out: Log TGI (converted)
# [19] = system: SF-539; test: Growth inhibition of human SF539 cells after 48 hrs by SRB protein assay; conditions: SF-539, 48 h; for TGI: read-out: Log TGI (converted)
# [20] = system: LOX IMVI; test: Growth inhibition of human LOX IMVI cells after 48 hrs by SRB protein assay; conditions: for TGI: read-out: Log TGI (converted)
# [21] = system: SF-268; test: Growth inhibition of human SF268 cells after 48 hrs by SRB protein assay; conditions: SF-268, 48 h; for TGI: read-out: Log TGI (converted)
# [22] = system: DU-145; test: Growth inhibition of human DU145 cells after 48 hrs by SRB protein assay; conditions: DU-145, 48 h; for TGI: read-out: Log TGI (converted)
# [23] = system: SNB-19; test: Growth inhibition of human SNB19 cells after 48 hrs by SRB protein assay; conditions: SNB-19, 48 h; for TGI: read-out: Log TGI (converted)
# [24] = system: SK-MEL-28; test: Growth inhibition of human SK-MEL-28 cells after 48 hrs by SRB protein assay; conditions: SK-MEL-28, 48 h; for TGI: read-out: Log TGI (converted)
# [25] = system: RPMI-8226; test: Growth inhibition of human RPMI8226 cells after 48 hrs by SRB protein assay; conditions: RPMI-8226, 48 h; for TGI: read-out: Log TGI (converted)
# [26] = system: M14; test: Growth inhibition of human M14 cells after 48 hrs by SRB protein assay; conditions: M14, 48 h; for TGI: read-out: Log TGI (converted)
# [27] = system: A549; test: Growth inhibition of human A549 cells after 48 hrs by SRB protein assay; conditions: A549, 48 h; for TGI: read-out: Log TGI (converted)
# [28] = system: NCI-H460; test: Growth inhibition of human NCI-H460 cells after 48 hrs by SRB protein assay; conditions: NCI-H460, 48 h; for TGI: read-out: Log TGI (converted)
# [29] = system: KM12; test: Growth inhibition of human KM12 cells after 48 hrs by SRB protein assay; conditions: KM12, 48 h; for TGI: read-out: Log TGI (converted)
# [30] = system: BT-549; test: Growth inhibition of human BT549 cells after 48 hrs by SRB protein assay; conditions: BT-549, 48 h; for TGI: read-out: Log TGI (converted)
# [31] = system: SF-295; test: Growth inhibition of human SF295 cells after 48 hrs by SRB protein assay; conditions: SF-295, 48 h; for TGI: read-out: Log TGI (converted)
# [32] = system: NCI-H322M; test: Growth inhibition of human NCI-H322M cells after 48 hrs by SRB protein assay; conditions: for TGI: read-out: Log TGI (converted)
# [33] = system: HT-29; test: Growth inhibition of human HT29 cells after 48 hrs by SRB protein assay; conditions: HT-29, 48 h; for TGI: read-out: Log TGI (converted)
# [34] = system: CAKI-1; test: Growth inhibition of human CAKI1 cells after 48 hrs by SRB protein assay; conditions: CAKI-1, 48 h; for TGI: read-out: Log TGI (converted)
# [35] = system: NCI-H23; test: Growth inhibition of human NCI-H23 cells after 48 hrs by SRB protein assay; conditions: NCI-H23, 48 h; for TGI: read-out: Log TGI (converted)
# [36] = system: COLO 205; test: Growth inhibition of human COLO205 cells after 48 hrs by SRB protein assay; conditions: COLO 205, 48 h; for TGI: read-out: Log TGI (converted)
# [37] = system: Hs-578T; test: Growth inhibition of human HS578T cells after 48 hrs by SRB protein assay; conditions: for TGI: read-out: Log TGI (converted)
# [38] = system: EKVX; test: Growth inhibition of human EKVX cells after 48 hrs by SRB protein assay; conditions: for TGI: read-out: Log TGI (converted)
# [39] = system: UACC-62; test: Growth inhibition of human UACC62 cells after 48 hrs by SRB protein assay; conditions: UACC-62, 48 h; for TGI: read-out: Log TGI (converted)
compound,measurement,setting,value
O=C(Cc1csc2nc(-c3ccc(Br)cc3)cn12)N/N=C/c1ccc(Cl)cc1Cl,GI50,[1],25.7 µM
same,TGI,[1],72.4 µM
same,GI50,[2],17 µM
same,TGI,[2],37.2 µM
same,GI50,[3],16.6 µM
same,TGI,[3],34.7 µM
same,GI50,[4],85.1 µM
same,TGI,[4],> 100 µM
same,GI50,[5],20 µM
same,TGI,[5],44.7 µM
same,GI50,[6],31.6 µM
same,TGI,[6],> 100 µM
same,GI50,[7],28.2 µM
same,TGI,[7],85.1 µM
same,GI50,[8],37.2 µM
same,TGI,[8],> 100 µM
same,GI50,[9],44.7 µM
same,TGI,[9],> 100 µM
same,GI50,[10],69.2 µM
same,TGI,[10],> 100 µM
same,GI50,[11],30.2 µM
same,TGI,[11],> 100 µM
same,GI50,[12],25.7 µM
same,TGI,[12],74.1 µM
same,GI50,[13],22.9 µM
same,TGI,[13],60.3 µM
same,GI50,[14],72.4 µM
same,TGI,[14],> 100 µM
same,GI50,[15],39.8 µM
same,TGI,[15],> 100 µM
same,GI50,[16],> 100 µM
same,TGI,[16],> 100 µM
same,GI50,[17],> 100 µM
same,TGI,[17],> 100 µM
same,GI50,[18],25.7 µM
same,TGI,[18],> 100 µM
same,GI50,[19],26.9 µM
same,TGI,[19],63.1 µM
same,GI50,[20],21.4 µM
same,TGI,[20],49 µM
same,GI50,[21],> 100 µM
same,TGI,[21],> 100 µM
same,GI50,[22],26.3 µM
same,TGI,[22],> 100 µM
same,GI50,[23],95.5 µM
same,TGI,[23],> 100 µM
same,GI50,[24],> 100 µM
same,TGI,[24],> 100 µM
same,GI50,[25],79.4 µM
same,TGI,[25],> 100 µM
same,GI50,[26],33.1 µM
same,TGI,[26],> 100 µM
same,GI50,[27],17 µM
same,TGI,[27],37.2 µM
same,GI50,[28],> 100 µM
same,TGI,[28],> 100 µM
same,GI50,[29],38 µM
same,TGI,[29],> 100 µM
same,GI50,[30],25.7 µM
same,TGI,[30],77.6 µM
same,GI50,[31],34.7 µM
same,TGI,[31],> 100 µM
same,GI50,[32],24.5 µM
same,TGI,[32],69.2 µM
same,GI50,[33],40.7 µM
same,TGI,[33],> 100 µM
same,GI50,[34],36.3 µM
same,TGI,[34],> 100 µM
same,GI50,[35],25.7 µM
same,TGI,[35],56.2 µM
same,GI50,[36],75.9 µM
same,TGI,[36],> 100 µM
same,GI50,[37],31.6 µM
same,TGI,[37],89.1 µM
same,GI50,[38],31.6 µM
same,TGI,[38],> 100 µM
same,GI50,[39],23.4 µM
same,TGI,[39],67.6 µM
O=C(Cc1csc2nc(-c3ccc(Br)cc3)cn12)N/N=C/c1ccccc1,GI50,[1],16.2 µM
same,TGI,[1],> 100 µM
same,GI50,[2],9.33 µM
same,TGI,[2],21.4 µM
same,GI50,[3],15.1 µM
same,TGI,[3],39.8 µM
same,GI50,[4],13.2 µM
same,TGI,[4],39.8 µM
same,GI50,[5],13.2 µM
same,TGI,[5],49 µM
same,GI50,[6],12 µM
same,TGI,[6],51.3 µM
same,GI50,[7],14.5 µM
same,TGI,[7],38.9 µM
same,GI50,[8],31.6 µM
same,TGI,[8],89.1 µM
same,GI50,[9],5.62 µM
same,TGI,[9],26.9 µM
same,GI50,[10],6.17 µM
same,TGI,[10],31.6 µM
same,GI50,[11],20.4 µM
same,TGI,[11],> 100 µM
same,GI50,[12],27.5 µM
same,TGI,[12],> 100 µM
same,GI50,[13],18.6 µM
same,TGI,[13],63.1 µM
same,GI50,[14],57.5 µM
same,TGI,[14],> 100 µM
same,GI50,[15],17.4 µM
same,TGI,[15],> 100 µM
same,GI50,[16],66.1 µM
same,TGI,[16],> 100 µM
same,GI50,[17],75.9 µM
same,TGI,[17],> 100 µM
same,GI50,[18],14.1 µM
same,TGI,[18],60.3 µM
same,GI50,[19],16.2 µM
same,TGI,[19],39.8 µM
same,GI50,[20],12.3 µM
same,TGI,[20],91.2 µM
same,GI50,[21],> 100 µM
same,TGI,[21],> 100 µM
same,GI50,[22],14.5 µM
same,TGI,[22],44.7 µM
same,GI50,[23],43.7 µM
same,TGI,[23],> 100 µM
same,GI50,[24],> 100 µM
same,TGI,[24],> 100 µM
same,GI50,[25],7.41 µM
same,TGI,[25],> 100 µM
same,GI50,[26],20.9 µM
same,TGI,[26],> 100 µM
same,GI50,[27],13.5 µM
same,TGI,[27],40.7 µM
same,GI50,[28],52.5 µM
same,TGI,[28],> 100 µM
same,GI50,[29],26.3 µM
same,TGI,[29],> 100 µM
same,GI50,[30],12.9 µM
same,TGI,[30],49 µM
same,GI50,[31],12 µM
same,TGI,[31],37.2 µM
same,GI50,[32],19.1 µM
same,TGI,[32],93.3 µM
same,GI50,[33],43.7 µM
same,TGI,[33],> 100 µM
same,GI50,[34],30.2 µM
same,TGI,[34],81.3 µM
same,GI50,[35],12.6 µM
same,TGI,[35],61.7 µM
same,GI50,[36],66.1 µM
same,TGI,[36],> 100 µM
same,GI50,[37],16.2 µM
same,TGI,[37],51.3 µM
same,GI50,[38],6.92 µM
same,TGI,[38],52.5 µM
same,GI50,[39],11.5 µM
same,TGI,[39],28.2 µM
